# The kinase profiling compilation of Christmann-Franck et al. (2016)
# Key:
# Assay in all cases: radiometric filter-binding kinase assay, Kinaseprofiler
# [1] = test system: EPHB2 (human), P29323 [A848S/K918E]; conditions: ATP 10 µM
# [2] = test system: DDR2 (human), Q16832 [S642A]; conditions: ATP 200 µM
# [3] = test system: MAPK9 (human), P45984 [S51N]; conditions: ATP 45 µM
# CDK3 CCNE1 (human) = CDK3 CCNE1 (human) (UniProt Q00526+P24864); conditions: ATP 200 µM
# [4] = target: PRKAA2 PRKAB1 PRKAG1 (human) (UniProt P54619+P54646+Q9Y478); conditions: ATP 45 µM
# Sequence of PRKAA2 PRKAB1 PRKAG1 (human) (P54619 whole entry, looked up): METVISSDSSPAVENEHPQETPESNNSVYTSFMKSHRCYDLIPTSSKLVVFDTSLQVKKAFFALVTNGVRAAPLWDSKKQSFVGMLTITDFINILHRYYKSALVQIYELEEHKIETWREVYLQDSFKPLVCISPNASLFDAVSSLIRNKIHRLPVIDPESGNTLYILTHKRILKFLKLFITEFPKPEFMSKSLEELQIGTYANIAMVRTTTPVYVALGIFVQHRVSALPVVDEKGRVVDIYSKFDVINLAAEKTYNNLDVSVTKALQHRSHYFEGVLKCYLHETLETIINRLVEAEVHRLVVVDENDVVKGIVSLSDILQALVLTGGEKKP
# Sequence of PRKAA2 PRKAB1 PRKAG1 (human) (P54646 whole entry, looked up): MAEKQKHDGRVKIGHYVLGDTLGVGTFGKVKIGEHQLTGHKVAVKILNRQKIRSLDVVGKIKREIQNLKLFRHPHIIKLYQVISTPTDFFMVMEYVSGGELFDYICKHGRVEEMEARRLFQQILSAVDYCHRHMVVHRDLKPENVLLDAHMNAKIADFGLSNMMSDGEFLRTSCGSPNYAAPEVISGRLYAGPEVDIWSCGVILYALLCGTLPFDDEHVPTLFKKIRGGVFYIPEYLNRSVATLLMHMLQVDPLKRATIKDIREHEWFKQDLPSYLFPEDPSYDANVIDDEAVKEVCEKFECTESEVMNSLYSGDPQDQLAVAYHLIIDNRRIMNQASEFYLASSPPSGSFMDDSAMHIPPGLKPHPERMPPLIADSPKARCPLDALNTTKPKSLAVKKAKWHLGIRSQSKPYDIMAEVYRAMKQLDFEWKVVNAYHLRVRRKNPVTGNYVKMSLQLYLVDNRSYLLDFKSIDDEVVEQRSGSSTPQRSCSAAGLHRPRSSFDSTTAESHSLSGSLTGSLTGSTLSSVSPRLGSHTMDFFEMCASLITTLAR
# Sequence of PRKAA2 PRKAB1 PRKAG1 (human) (Q9Y478 whole entry, looked up): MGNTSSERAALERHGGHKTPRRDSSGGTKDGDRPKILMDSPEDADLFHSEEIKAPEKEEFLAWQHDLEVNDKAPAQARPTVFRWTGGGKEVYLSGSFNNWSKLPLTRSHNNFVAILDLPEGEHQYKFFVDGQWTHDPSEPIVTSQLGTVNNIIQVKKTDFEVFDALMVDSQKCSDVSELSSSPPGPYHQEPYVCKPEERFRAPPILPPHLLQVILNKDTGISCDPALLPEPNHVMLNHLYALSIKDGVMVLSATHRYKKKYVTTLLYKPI
# CDK2 CCNE1 (human) = CDK2 CCNE1 (human) (UniProt P24941+P24864); conditions: ATP 120 µM
# Sequence of CDK2 CCNE1 (human) (P24864 whole entry, looked up, other chains not shown): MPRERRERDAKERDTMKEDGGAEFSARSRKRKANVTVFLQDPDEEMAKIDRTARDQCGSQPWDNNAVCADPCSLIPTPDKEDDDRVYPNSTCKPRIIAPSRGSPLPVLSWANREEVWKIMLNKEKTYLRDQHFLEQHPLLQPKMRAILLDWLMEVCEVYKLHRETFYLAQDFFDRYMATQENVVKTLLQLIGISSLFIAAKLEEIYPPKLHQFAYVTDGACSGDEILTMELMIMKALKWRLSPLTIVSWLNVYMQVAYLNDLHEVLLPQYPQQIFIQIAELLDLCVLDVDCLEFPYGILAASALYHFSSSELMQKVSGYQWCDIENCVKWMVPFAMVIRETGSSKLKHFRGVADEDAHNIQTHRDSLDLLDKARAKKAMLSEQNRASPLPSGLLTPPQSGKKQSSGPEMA
# CDK7 CCNH MNAT1 (human) = CDK7 CCNH MNAT1 (human) (UniProt P50613+P51948+P51946); conditions: compound 10.0 µM; ATP 90 µM
# Sequence of CDK7 CCNH MNAT1 (human) (P50613 whole entry, looked up): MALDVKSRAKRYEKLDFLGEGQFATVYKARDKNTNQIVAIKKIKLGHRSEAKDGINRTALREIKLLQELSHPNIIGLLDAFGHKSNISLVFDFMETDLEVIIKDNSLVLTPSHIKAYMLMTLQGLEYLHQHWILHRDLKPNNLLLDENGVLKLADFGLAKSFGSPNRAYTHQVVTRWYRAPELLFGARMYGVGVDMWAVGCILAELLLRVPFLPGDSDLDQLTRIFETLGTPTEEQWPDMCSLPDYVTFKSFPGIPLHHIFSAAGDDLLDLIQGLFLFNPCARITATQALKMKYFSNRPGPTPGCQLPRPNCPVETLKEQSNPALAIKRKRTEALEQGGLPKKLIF
# Sequence of CDK7 CCNH MNAT1 (human) (P51946 whole entry, looked up): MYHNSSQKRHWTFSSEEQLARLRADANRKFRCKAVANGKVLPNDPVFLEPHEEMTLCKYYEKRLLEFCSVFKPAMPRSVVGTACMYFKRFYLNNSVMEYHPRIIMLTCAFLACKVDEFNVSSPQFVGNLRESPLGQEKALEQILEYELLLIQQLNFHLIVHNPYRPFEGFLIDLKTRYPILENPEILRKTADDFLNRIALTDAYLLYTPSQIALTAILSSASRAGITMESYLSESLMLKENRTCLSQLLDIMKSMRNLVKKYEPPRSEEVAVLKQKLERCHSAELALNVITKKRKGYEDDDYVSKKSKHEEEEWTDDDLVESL
# Sequence of CDK7 CCNH MNAT1 (human) (P51948 whole entry, looked up): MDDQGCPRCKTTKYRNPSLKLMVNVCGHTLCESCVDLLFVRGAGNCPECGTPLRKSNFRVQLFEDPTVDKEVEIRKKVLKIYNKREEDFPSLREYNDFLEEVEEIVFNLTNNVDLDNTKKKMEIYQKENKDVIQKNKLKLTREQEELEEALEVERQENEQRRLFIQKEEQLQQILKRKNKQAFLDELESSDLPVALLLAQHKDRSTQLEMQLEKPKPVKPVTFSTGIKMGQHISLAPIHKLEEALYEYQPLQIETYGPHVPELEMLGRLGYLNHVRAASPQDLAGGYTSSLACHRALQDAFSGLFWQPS
# MTOR FKBP1A (human) = MTOR FKBP1A (human) (UniProt P42345+P62942); conditions: ATP 45 µM
# Sequence of MTOR FKBP1A (human) (P62942 whole entry, looked up, other chains not shown): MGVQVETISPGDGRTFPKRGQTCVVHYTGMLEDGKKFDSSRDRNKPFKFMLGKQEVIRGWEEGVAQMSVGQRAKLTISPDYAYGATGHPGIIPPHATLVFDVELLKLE
# CDK2 CCNA2 (human) = CDK2 CCNA2 (human) (UniProt P24941+P20248); conditions: ATP 45 µM
# Sequence of CDK2 CCNA2 (human) (P20248 whole entry, looked up, other chains not shown): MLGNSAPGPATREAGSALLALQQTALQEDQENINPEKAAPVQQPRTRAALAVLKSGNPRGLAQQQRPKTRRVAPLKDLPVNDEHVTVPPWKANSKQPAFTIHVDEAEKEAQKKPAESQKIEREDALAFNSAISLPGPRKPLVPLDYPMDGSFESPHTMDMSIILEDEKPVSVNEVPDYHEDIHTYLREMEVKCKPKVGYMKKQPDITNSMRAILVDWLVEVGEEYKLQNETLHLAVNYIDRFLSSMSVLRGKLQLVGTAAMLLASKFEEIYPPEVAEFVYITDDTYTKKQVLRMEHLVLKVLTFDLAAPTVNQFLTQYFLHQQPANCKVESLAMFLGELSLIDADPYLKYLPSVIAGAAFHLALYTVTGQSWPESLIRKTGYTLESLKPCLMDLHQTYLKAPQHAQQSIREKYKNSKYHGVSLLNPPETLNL
# Sequence of DDR2 (human), Q16832 [S642A] (Q16832 whole entry, looked up, stated change not applied): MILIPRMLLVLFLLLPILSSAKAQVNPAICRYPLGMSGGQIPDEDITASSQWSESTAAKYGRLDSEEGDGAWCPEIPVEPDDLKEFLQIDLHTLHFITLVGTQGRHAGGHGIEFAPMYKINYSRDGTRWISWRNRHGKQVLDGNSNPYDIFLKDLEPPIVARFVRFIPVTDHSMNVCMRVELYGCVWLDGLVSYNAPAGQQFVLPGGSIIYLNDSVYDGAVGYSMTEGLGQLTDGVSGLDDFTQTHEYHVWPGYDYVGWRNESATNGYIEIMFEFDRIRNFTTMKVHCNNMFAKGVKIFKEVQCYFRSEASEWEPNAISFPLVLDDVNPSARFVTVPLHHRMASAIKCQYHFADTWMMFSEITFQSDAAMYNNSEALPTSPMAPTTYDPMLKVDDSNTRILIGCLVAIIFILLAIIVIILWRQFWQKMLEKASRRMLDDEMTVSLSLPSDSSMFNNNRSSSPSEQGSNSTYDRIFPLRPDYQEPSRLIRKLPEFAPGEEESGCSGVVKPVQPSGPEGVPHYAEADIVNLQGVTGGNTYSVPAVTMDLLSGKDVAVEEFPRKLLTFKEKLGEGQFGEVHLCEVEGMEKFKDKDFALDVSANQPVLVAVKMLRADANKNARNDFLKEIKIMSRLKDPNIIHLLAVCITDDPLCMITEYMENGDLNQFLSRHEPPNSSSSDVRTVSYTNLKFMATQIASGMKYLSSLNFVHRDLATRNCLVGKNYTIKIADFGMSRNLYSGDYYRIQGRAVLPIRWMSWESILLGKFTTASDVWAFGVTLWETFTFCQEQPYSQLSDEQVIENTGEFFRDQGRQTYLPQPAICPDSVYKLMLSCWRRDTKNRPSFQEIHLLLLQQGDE
# Sequence of CDK3 CCNE1 (human) (P24864 whole entry, looked up): as the sequence (P24864 whole entry, looked up, other chains not shown) above
# Sequence of CDK3 CCNE1 (human) (Q00526 whole entry, looked up): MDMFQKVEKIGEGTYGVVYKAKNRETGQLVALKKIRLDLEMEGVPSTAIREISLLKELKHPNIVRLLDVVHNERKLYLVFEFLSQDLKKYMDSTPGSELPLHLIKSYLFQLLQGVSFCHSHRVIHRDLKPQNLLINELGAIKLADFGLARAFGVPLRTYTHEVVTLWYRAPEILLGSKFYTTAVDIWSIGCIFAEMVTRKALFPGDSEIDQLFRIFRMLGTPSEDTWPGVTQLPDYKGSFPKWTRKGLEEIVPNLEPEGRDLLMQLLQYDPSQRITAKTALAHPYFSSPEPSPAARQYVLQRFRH
residual activity ([1]; compound 1.0 µM) [%],residual activity ([1]; compound 10.0 µM) [%],residual activity ([2]; compound 1.0 µM) [%],residual activity ([2]; compound 10.0 µM) [%],residual activity ([3]; compound 1.0 µM) [%],residual activity ([3]; compound 10.0 µM) [%],SMILES,further results
91,13,94,87,55,17,O=C1Nc2ccccc2/C1=C1\Nc2ccccc2\C1=N/O,–
101,95,93,92,26,-6,O=C1c2ccccc2-c2n[nH]c3cccc1c23,–
–,–,–,–,–,–,CO[C@H]1[C@@H](OC)C[C@H](C)[C@@H](OC)C2=CC(=O)C=C(NC(=O)/C(C)=C\C=C/[C@H](OC)[C@@H](OC(N)=O)/C(C)=C\[C@@H]1C)C2=O,residual activity (CDK3 CCNE1 (human); compound 1.0 µM): 100%; residual activity (CDK3 CCNE1 (human); compound 10.0 µM): 87%; residual activity ([4]; compound 1.0 µM): 92%; residual activity ([4]; compound 10.0 µM): 78%; residual activity (CDK2 CCNE1 (human); compound 1.0 µM): 104%; residual activity (CDK2 CCNE1 (human); compound 10.0 µM): 91%; residual activity (CDK7 CCNH MNAT1 (human)): 101%; residual activity (MTOR FKBP1A (human); compound 1.0 µM): 77%; residual activity (MTOR FKBP1A (human); compound 10.0 µM): 89%; residual activity (CDK2 CCNA2 (human); compound 1.0 µM): 138%; residual activity (CDK2 CCNA2 (human); compound 10.0 µM): 83%
–,–,–,35,–,–,O=C(Nc1cccc(Nc2nccc(Nc3cccc(C(F)(F)F)c3)n2)c1)C1CC1,–

SMILES,residual activity ([1]; compound 1.0 µM) [%],residual activity ([1]; compound 10.0 µM) [%],residual activity ([2]; compound 1.0 µM) [%],residual activity ([2]; compound 10.0 µM) [%],residual activity ([3]; compound 1.0 µM) [%],residual activity ([3]; compound 10.0 µM) [%],further results
COC(=O)[C@]1(O)C[C@@H]2O[C@@]1(C)n1c3ccccc3c3c4c(c5c6ccccc6n2c5c31)C(=O)NC4,–,–,–,–,–,-11,–
CN[C@@H]1C[C@H]2O[C@@](C)([C@@H]1OC)n1c3ccccc3c3c4c(c5c6ccccc6n2c5c31)C(=O)NC4,–,–,–,–,52,–,–
